In patent US9505724B2, “4-amino substituted condensed pyrimidine compounds as PDE4 inhibitors” (GRÜNENTHAL GMBH, priority 2013, dated 2016):
Where a name gives a salt, the structure may show the parent alone. Read-outs that look alike come from different tables or passages of the source.

Assays:
human PDE4B1 = biological target: T1, human PDE4B1 (Homo sapiens, UniProt Q07343); experiment: cAMP HTRF assay to determine the activity of hPDE4B1; assay type: biochemical; conditions: read-out: PDE4B IC50
T1 construct: host or cells: Sf9 cells
Method: 1. Determination of the PDE4B IC50 Values with a cAMP HRTF® Assay to Determine the Activity of hPDE4B1
The inhibiting effect of the compounds on the enzyme activity of human PDE4B1 is measured by the quantification of 5′-AMP, which is formed from 3′,5′-adenosine monophosphate (cAMP). Human recombinant enzyme, expressed in Sf9 cells, and the HTRF (homogeneous time-resolved fluorescence) detection method are used in the assay.
The test compound or water (control) is mixed with the human recombinant PDE4B1 enzyme (4.8 U) in a buffer consisting of 44.4 mM tris-HCl, 5.28 mM MgCl2, 2.64 mM DTT and 0.044% Tween 20 (pH 7.8). After adding the cAMP enzyme substrate (final concentration 40 nM) the mixture is incubated for 30 minutes at room temperature. Then a fluorescence acceptor (Dye2 marked with cAMP), a fluorescence donor (anti-cAMP antibody marked with a europium cryptate) and the non-specific phosphodiesterase inhibitor IBMX (3-isobutyl-1-methylxanthine; final concentration 1 mM) are added. After 60 minutes the fluorescence transfer, which correlates with the amount of remaining cAMP, is measured with a microplate reader (Rubystar, BMG) at λex=337 nm, λem=620 nm and λεm=665 nm. The enzyme activity is calculated from the quotient formed from the measured signal at 665 nm and that at 620 nm. The result is expressed as the percentage inhibition of enzyme activity of the control (without PDE4 inhibitor) (literature: N. Saldou et al., Comparison of recombinant human PDE4 isoforms: interaction with substrate and inhibitors, Cell. Signal. Vol. 10, No. 6, 427-440, 1998). The enzyme is omitted for measurement of the basal control. The averaged results are set out in Table 5.

human recombinant PDE4D2 = human recombinant PDE4D2 (Homo sapiens, UniProt Q08499); experiment: cAMP HTRF assay to determine the activity of hPDE4D2; assay type: biochemical
Method: 2. Determination of the PDE4D-IC50 Values with a cAMP HRTF® Assay to Determine the Activity of hPDE4D2
The further procedure and evaluation are performed in exactly the same way as in the above description of the cAMP HTRF® assay for PDE4B.

[1] = human recombinant PDE4B1, cAMP 40 nM, averaged results (Table 5)
[2] = comparative experiments, re-synthesised prior-art compounds (Table 6)

T1 sequence (Q07343 whole entry): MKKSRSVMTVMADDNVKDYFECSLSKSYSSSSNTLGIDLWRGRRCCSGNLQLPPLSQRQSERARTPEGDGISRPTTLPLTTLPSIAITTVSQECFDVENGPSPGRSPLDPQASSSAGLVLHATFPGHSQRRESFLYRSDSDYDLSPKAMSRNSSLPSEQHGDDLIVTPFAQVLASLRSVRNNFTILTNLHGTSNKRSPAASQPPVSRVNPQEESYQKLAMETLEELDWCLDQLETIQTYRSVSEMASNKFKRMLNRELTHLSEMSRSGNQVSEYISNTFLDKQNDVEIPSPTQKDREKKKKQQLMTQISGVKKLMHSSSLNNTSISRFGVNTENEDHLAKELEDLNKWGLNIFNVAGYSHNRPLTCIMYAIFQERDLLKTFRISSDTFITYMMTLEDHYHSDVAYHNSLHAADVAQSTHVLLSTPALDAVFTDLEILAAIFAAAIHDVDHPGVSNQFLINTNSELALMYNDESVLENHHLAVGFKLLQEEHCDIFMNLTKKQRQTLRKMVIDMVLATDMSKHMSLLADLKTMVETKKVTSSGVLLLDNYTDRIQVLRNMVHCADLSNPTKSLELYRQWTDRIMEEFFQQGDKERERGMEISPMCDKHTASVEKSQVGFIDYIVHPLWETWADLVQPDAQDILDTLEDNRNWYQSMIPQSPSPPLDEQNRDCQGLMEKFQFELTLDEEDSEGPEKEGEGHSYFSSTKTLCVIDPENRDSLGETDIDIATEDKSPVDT
human recombinant PDE4D2, sequence (Q08499 303-809): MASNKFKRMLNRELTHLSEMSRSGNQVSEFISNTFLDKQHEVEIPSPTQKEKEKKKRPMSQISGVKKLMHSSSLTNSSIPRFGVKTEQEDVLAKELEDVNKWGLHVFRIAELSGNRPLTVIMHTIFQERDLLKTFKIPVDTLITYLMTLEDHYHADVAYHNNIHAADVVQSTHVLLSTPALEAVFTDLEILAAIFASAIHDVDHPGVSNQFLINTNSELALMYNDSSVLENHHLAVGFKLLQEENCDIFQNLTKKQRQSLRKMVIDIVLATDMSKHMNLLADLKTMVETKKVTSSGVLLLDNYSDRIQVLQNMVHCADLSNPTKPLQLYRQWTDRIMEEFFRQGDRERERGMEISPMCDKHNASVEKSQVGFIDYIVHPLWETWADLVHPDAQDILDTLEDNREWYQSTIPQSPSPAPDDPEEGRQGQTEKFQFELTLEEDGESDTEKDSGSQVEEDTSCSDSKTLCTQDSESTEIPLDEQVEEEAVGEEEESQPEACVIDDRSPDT

Row | SMILES | IC50 (human PDE4B1; [1]) [nM] | other results
1 | COc1ccc(-c2nc3c(c(Nc4ccc(CC(=O)O)cc4)n2)CCC3)cc1 [Compound 8, 2-(4-(2-(4-Methoxyphenyl)-6,7-dihydro-5H-cyclopenta[d]pyrimidin-4-ylamino)phenyl)acetic acid as 2,2,2-trifluoroacetic acid addition salt] | 380 | –
2 | COc1ccc(-c2nc3c(c(Nc4ccc(CC(=O)O)cc4)n2)CCC3)cc1F [Compound 3, 2-(4-(2-(3-Fluoro-4-methoxyphenyl)-6,7-dihydro-5H-cyclopenta[d]pyrimidin-4-ylamino)phenyl)acetic acid] | 120 | –
3 | O=C(O)Cc1ccc(Nc2nc(-c3ccc4occc4c3)nc3c2CCC3)cc1 [Compound 2-1, 2-(4-(2-(Benzofuran-5-yl)-6,7-dihydro-5H-cyclopenta[d]pyrimidin-4-ylamino)phenyl)acetic acid] | 740 | –
4 | O=C(O)Cc1ccc(Nc2nc(-c3ccccc3)nc3c2CCC3)cc1 [Compound 16, 2-(4-(2-Phenyl-6,7-dihydro-5H-cyclopenta[d]pyrimidin-4-ylamino)phenyl)acetic acid] | 690 | –
5 | CCOc1ccc(-c2nc3c(c(Nc4ccc(CC(=O)O)cc4)n2)CCC3)cc1 [Compound 7, 2-(4-(2-(4-Ethoxyphenyl)-6,7-dihydro-5H-cyclopenta[d]pyrimidin-4-ylamino)phenyl)acetic acid] | 600 | –
6 | O=C(O)c1ccc(Nc2nc(-c3cccc(Cl)c3)nc3c2CCCC3)cc1 [Compound 19, 4-(2-(3-Chlorophenyl)-5,6,7,8-tetrahydroquinazoline-4-ylamino)benzoic acid] | 2140 | –
7 | COc1ccc(-c2nc3c(c(Nc4ccc(CC(=O)O)cc4)n2)CCC3)cc1Cl [Compound 4, 2-(4-(2-(3-Chloro-4-methoxyphenyl)-6,7-dihydro-5H-cyclopenta[d]pyrimidin-4-ylamino)phenyl)acetic acid] | 70 | –
8 | O=C(O)Cc1ccc(Nc2nc(-c3ccc(OC(F)F)cc3)nc3c2CCC3)cc1 [Compound 5, 2-(4-(2-(4-(Difluoromethoxy)phenyl)-6,7-dihydro-5H-cyclopenta[d]pyrimidin-4-ylamino)phenyl)acetic acid] | 490 | –
9 | O=C(O)c1ccc(Nc2nc(-c3cccc(Cl)c3)nc3c2CCC3)cc1 [Compound 11, 4-(2-(3-Chlorophenyl)-6,7-dihydro-5H-cyclopenta[d]pyrimidin-4-ylamino)benzoic acid] | 640 | –
10 | O=C(O)Cc1ccc(Nc2nc(-c3cccc(Cl)c3)nc3c2CCC3)cc1 [Compound 10, 2-(4-(2-(3-Chlorophenyl)-6,7-dihydro-5H-cyclopenta[d]pyrimidin-4-ylamino)phenyl)acetic acid] | 300 | –
11 | O=C(O)Cc1ccc(Nc2nc(-c3ccc(Br)cc3)nc3c2CCC3)cc1 [Compound 1, 2-(4-(2-(4-Bromophenyl)-6,7-dihydro-5H-cyclopenta[d]pyrimidin-4-ylamino)phenyl)acetic acid] | 660 | –
12 | O=C(O)Cc1ccc(Nc2nc(-c3ccc(F)c(F)c3)nc3c2CCC3)cc1 [Compound 2, 2-(4-(2-(3,4-Difluorophenyl)-6,7-dihydro-5H-cyclopenta[d]pyrimidin-4-ylamino)phenyl)acetic acid] | 190 | –
13 | C=CCc1c(C)nc(-c2ccc(OC)cc2)nc1Nc1ccc(CC(=O)O)cc1 [Compound S1, reference compound] | – | IC50 (human recombinant PDE4D2; comparative experiments, re-synthesised prior-art compounds (Table 6), read-out: PDE4D IC50): > 10000 nM; IC50 (human PDE4B1; [2]): 3600 nM
14 | C=CCc1c(C)nc(-c2ccccc2)nc1Nc1ccc(C(=O)O)cc1 [Compound S2, reference compound] | – | IC50 (human recombinant PDE4D2): 1300 nM; IC50 (human PDE4B1; [2]): 1100 nM
15 | O=C(O)Cc1ccc(Nc2nc(-c3cccc(Cl)c3)nc3c2CCCC3)cc1 [Compound 12, 2-(4-(2-(3-Chlorophenyl)-5,6,7,8-tetrahydroquinazolin-4-ylamino)phenyl)acetic acid] | 550 | –
16 | COc1ccc(-c2nc3c(c(Nc4ccc(C(=O)O)cc4)n2)CCC3)cc1F [Compound 13, 4-(2-(3-Fluoro-4-Methoxyphenyl)-6,7-Dihydro-5H-Cyclopenta[d]pyrimidin-4-ylamino)benzoic acid] | 210 | melting point: > 260 °C
17 | COc1ccc(-c2nc3c(c(Nc4ccc(C(=O)O)cc4)n2)CCC3)cc1Cl [Compound 14, 4-(2-(3-Chloro-4-methoxyphenyl)-6,7-dihydro-5H-cyclopenta[d]pyrimidin-4-ylamino)benzoic acid] | 140 | melting point: > 260 °C
18 | O=C(O)Cc1ccc(Nc2nc(-c3cccc(Br)c3)nc3c2CCC3)cc1 [Compound 18, 2-(4-(2-(3-Bromophenyl)-6,7-dihydro-5H-cyclopenta[d]pyrimidin-4-ylamino)phenyl)acetic acid] | 220 | –
19 | O=C(O)Cc1ccc(Nc2nc(-c3ccc(Cl)cc3)nc3c2CCC3)cc1 [Compound 9, 2-(4-(2-(4-Chlorophenol)-6,7-dihydro-5H-cyclopenta[d]pyrimidin-4-ylamino)phenyl)acetic acid as 2,2,2-trifluoroacetic acid addition salt] | 880 | –
20 | O=C(O)c1ccc(Nc2nc(-c3ccc(F)c(F)c3)nc3c2CCC3)cc1 [Compound 15, 4-(2-(3,4-Difluorophenyl)-6,7-dihydro-5H-cyclopenta[d]pyrimidin-4-ylamino)benzoic acid] | 390 | melting point: > 260 °C
21 | O=C(O)Cc1ccc(Nc2nc(-c3ccc(OC(F)(F)F)cc3)nc3c2CCC3)cc1 [Compound 6, 2-(4-(2-(4-(Trifluoromethoxy)phenyl)-6,7-dihydro-5H-cyclopenta[a]pyrimidin-4-ylamino)phenyl)acetic acid] | 3100 | –
22 | O=C(O)Cc1ccc(Nc2nc(-c3cccc(F)c3)nc3c2CCC3)cc1 [Compound 17, 2-(4-(2-(3-Fluorophenyl)-6,7-dihydro-5H-cyclopenta[d]pyrimidin-4-ylamino)phenyl)acetic acid] | 210 | –
